Measured values: the supplement of paper PMC10307832

How the values were obtained:
Assay in all cases: relative viability (nuclei count vs DMSO), 5 days (fraction); higher = more cells survive
[1] = compound: Cc1cnc(CNC(=O)c2c(=O)c3ccc(N4CCCN(C)CC4)nc3n3c2sc2ccccc23)cn1 [CX-5461] + CS(=O)(=O)CCNCc1ccc(-c2ccc3ncnc(Nc4ccc(OCc5cccc(F)c5)c(Cl)c4)c3c2)o1 [Lapatinib] (partner 2 µM)
In short: (§1)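 After 5 days of treatment, lung cancer cells in 1536-well plates were fixed and stained in a single step (final 0.05% Triton X-100, 1% formaldehyde, 1 ug/ml Hoechst) and their nuclei counted on 4× images. Treatment had been applied by pin tool the day after seeding as one drug alone or as a fixed anchor-drug dose with five library-drug doses (not always all listed) in √10 steps. Relative viability is the nuclei count of treated wells divided by that of vehicle wells, and values are medians of duplicate plates.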

[2] = compound: Cc1cnc(CNC(=O)c2c(=O)c3ccc(N4CCCN(C)CC4)nc3n3c2sc2ccccc23)cn1 [CX-5461] + CS(=O)(=O)N1CCN(Cc2cc3nc(-c4cccc5[nH]ncc45)nc(N4CCOCC4)c3s2)CC1 [Pictilisib] (partner 1 µM)
In short: as §1

[3] = compound: O=C(Nc1cc(C(F)(F)F)cc(C(F)(F)F)c1)c1cc(Cl)ccc1O [IMD-0354] + CS(=O)(=O)CCNCc1ccc(-c2ccc3ncnc(Nc4ccc(OCc5cccc(F)c5)c(Cl)c4)c3c2)o1 [Lapatinib] (partner 2 µM)
In short: as §1

[4] = compound: O=C(Nc1cc(C(F)(F)F)cc(C(F)(F)F)c1)c1cc(Cl)ccc1O [IMD-0354] + Cc1nc(NC(=O)N2CCC[C@H]2C(N)=O)sc1-c1ccnc(C(C)(C)C(F)(F)F)c1 [Alpelisib] (partner 2 µM)
In short: as §1

Cell Line	relative viability ([1]; first compound 0.01 µM)	relative viability ([1]; first compound 0.03162 µM)	relative viability ([1]; first compound 0.1 µM)	relative viability ([1]; first compound 0.3162 µM)	relative viability ([1]; first compound 1 µM)	relative viability ([2]; first compound 0.01 µM)	relative viability ([2]; first compound 0.03162 µM)	relative viability ([2]; first compound 0.1 µM)	relative viability ([2]; first compound 0.3162 µM)	relative viability ([2]; first compound 1 µM)	relative viability ([3]; first compound 0.04 µM)	relative viability ([3]; first compound 0.1265 µM)	relative viability ([3]; first compound 0.4 µM)	relative viability ([3]; first compound 1.265 µM)	relative viability ([3]; first compound 4 µM)	relative viability ([4]; first compound 0.04 µM)	relative viability ([4]; first compound 0.1265 µM)	relative viability ([4]; first compound 0.4 µM)	relative viability ([4]; first compound 1.265 µM)	relative viability ([4]; first compound 4 µM)
COR-L 105	0.363	0.405	0.376	0.265	0.267	0.425	0.461	0.352	0.281	0.333	0.332	0.329	0.339	0.243	0.253	1.06	0.76	0.902	0.604	0.287
NCI-H1975	1.14	0.921	0.855	0.927	0.386	0.293	0.274	0.274	0.315	0.209	1.13	0.875	0.575	0.194	0.185	0.799	0.679	0.36	0.167	0.204
Calu-6	1.04	1.16	0.964	0.998	0.405	1	1.04	0.817	0.845	0.409	0.983	1.1	0.6	0.223	0.2	0.925	0.909	0.672	0.101	0.0892
NCI-H1993	0.769	0.84	0.881	0.802	0.762	0.778	0.83	0.891	0.84	0.819	0.79	0.788	0.754	0.497	0.562	0.762	0.695	0.581	0.487	0.514
RERF-LC-KJ	0.785	0.701	0.877	0.637	0.765	0.466	0.601	0.565	0.538	0.5	0.863	0.981	0.507	0.355	0.265	0.823	0.71	0.586	0.404	0.303
NCI-H23	1.15	1.19	0.82	0.266	0.362	0.449	0.501	0.488	0.292	0.362	0.996	1.14	0.475	0.183	0.237	0.802	0.695	0.412	0.435	0.243
HCC-366	1.14	1	0.812	0.04	0.0982	0.133	0.142	0.142	0.0964	0.162	0.91	1.41	0.118	0.0814	0.0302	0.509	0.727	0.148	0.373	0.0309
EMC-BAC-2	0.861	1.04	0.88	0.693	0.588	0.555	0.565	0.562	0.414	0.353	0.965	0.803	0.555	0.408	0.229	0.796	0.766	0.448	0.611	0.25
NCI-H2405	1.18	1.07	1.18	0.541	0.808	0.427	0.468	0.419	0.259	0.413	1.38	1.24	0.69	0.243	0.202	0.961	0.835	0.609	0.306	0.163
SK-MES-1	0.431	0.474	0.454	0.512	0.403	0.391	0.352	0.402	0.324	0.333	0.434	0.528	0.377	0.369	0.236	0.976	0.834	0.598	0.283	0.285
NCI-H2170	0.305	0.261	0.283	0.207	0.296	0.368	0.366	0.344	0.232	0.379	0.275	0.288	0.255	0.252	0.223	0.752	0.785	0.603	0.835	0.373
EPLC-272H	0.936	1.12	0.9		1.02	0.306	0.353	0.339		0.335	1.32	0.944	0.618	0.716	0.205	1.04	0.893	0.648	0.842	0.374
EBC-1	0.214	0.191	0.244	0.2	0.208	0.375	0.344	0.331	0.362	0.224	0.163	0.202	0.251	0.168	0.249	0.882	0.788	0.559	0.174	0.227
NCI-H1915	1.01	1.06	0.99	0.379	1.04	0.966	1.18	1.1	0.326	0.997	0.869	0.941	0.605	0.761	0.192	0.926	1.05	0.854	0.612	0.214
NCI-H596	1.07	1.09	0.96	1.1	0.628	0.465	0.406	0.372	0.429	0.344	0.989	1.22	0.823	1.07	0.474	0.484	0.458	0.466	0.528	0.326
NCI-H322M	0.552	0.564	0.644		0.655	0.578	0.535	0.575		0.464	0.651	0.584	0.57	0.802	0.342	0.717	0.607	0.695	0.834	0.475
